Experimental data as given in PubChem BioAssay (NCI).
Values joined by “and” are separate entries in the source; they are usually repeats but may differ in a detail not shown here. Equal values may be shown once.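 A five-concentration, 48-hour dose response in 96-well plates underlies each endpoint, interpolated linearly between surrounding concentrations. Here, GI50 denotes the concentration required for 50% inhibition of growth. TGI: total growth inhibition.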

system: HS 578T breast; assay: inhibition of tumour cell growth, NCI panel, 48 h

Question: With Cn1c(=O)c(Oc2ccc(F)cc2)cc2cnc(NC3CCOCC3)nc21 as the compound, how does the GI50 read?
Answer: > 25 µM

Question: What about the TGI of the same compound?
Answer: > 25 µM

Question: With CC1(C)N=C(N)N=C(N)N1c1ccc(CCCCc2ccc(Cl)c(S(=O)(=O)F)c2)c(Cl)c1 as the compound, how does the GI50 read?
Answer: 9.71 µM

Question: What about the TGI of the same compound?
Answer: 34.2 µM

Question: Which results are given for Clc1nc(Cl)nc(Nc2cccc3ccccc23)n1?
Answer: GI50: > 100 µM; TGI: > 100 µM

Question: With Cc1cc2cc3c(=O)[nH]c(=O)[nH]c3nc2cc1C as the compound, how does the TGI read?
Answer: > 100 µM

Question: How did the TGI turn out when CCc1c(Cl)c(C)cc(O)c1Cl was run?
Answer: 99.7 µM

Question: Which GI50 does the source give for CC(C)OC(=O)[C@H](C)NP(=O)(OC[C@H]1O[C@@H](n2ccc(=O)[nH]c2=O)[C@](C)(F)[C@@H]1O)Oc1ccccc1 (some centres undefined) here?
Answer: > 100 µM

Question: What about the TGI of the same compound?
Answer: > 100 µM

Question: With C=COC(=O)N[C@H]1CCc2cc(OC)c(OC)c(OC)c2-c2ccc(SC)c(=O)cc21 as the compound, how does the TGI read?
Answer: > 4.64 µM

Question: CN(C)c1ncnc2c1ncn2CCn1cnc2c(N(C)C)ncnc21 was tested. Which TGI did it give?
Answer: > 100 µM

Question: For O=C(O)c1ccc(C(=O)O)c2c(C(=O)O)ccc(C(=O)O)c12, which TGI is on record?
Answer: > 100 µM

Question: What does the source list for CSc1nc(NC2OC(COC(C)=O)C(OC(C)=O)C(OC(C)=O)C2OC(C)=O)c(N=CC=Nc2c(NC3OC(COC(C)=O)C(OC(C)=O)C(OC(C)=O)C3OC(C)=O)nc(SC)n(C)c2=O)c(=O)n1C (centres undefined)?
Answer: GI50: 13.2 µM; TGI: 50 µM and 75.7 µM

Question: With O=S(=O)(Nc1ccc(Cl)cc1Cl)c1ccc(-c2cnc(C3CC3)o2)cc1 as the compound, how does the GI50 read?
Answer: 0.365 µM

Question: And the TGI?
Answer: 48.5 µM

Question: Which GI50 does the source give for CCc1ccc(/C=C/c2ccc(O)c3ncccc23)[n+](C)c1 here?
Answer: 51.2 µM

Question: What about the TGI of the same compound?
Answer: > 100 µM

Question: For S=c1[nH]c2c(Cl)c(Cl)c(Cl)c(Cl)c2[nH]1, which TGI is on record?
Answer: 69.4 µM

Question: With O=C(/C=C/C=C/c1ccccc1)c1ccccc1 as the compound, how does the TGI read?
Answer: 55.4 µM

Question: Cc1ccc(Nc2oc(-c3ccccc3)nc2[P+](c2ccccc2)(c2ccccc2)c2ccccc2)cc1 was tested. Which GI50 did it give?
Answer: 1.41 µM

Question: And the TGI?
Answer: 3.99 µM

system: M14 melanoma; assay: inhibition of tumour cell growth, NCI panel, 48 h

Question: What does the source list for CN(C)C/C=C/C(=O)Nc1cc2c(Nc3ccc(F)c(Cl)c3)ncnc2cc1O[C@H]1CCOC1?
Answer: GI50: 1.39 µM and 1.42 µM; TGI: 2.99 µM and 6.61 µM

Question: With COc1cc(/C=C/C(=O)c2cccc(-n3cc(-c4ccc(Cl)cc4)[nH]c3=O)c2)ccc1O as the compound, how does the GI50 read?
Answer: 3.51 µM

Question: And the TGI?
Answer: 15.2 µM

Question: Which results are given for CCN(Cc1ccc(F)cc1)c1ccc(CO)c(Br)c1?
Answer: GI50: 16.5 µM; TGI: > 55.1 µM

Question: With Cc1ccc2c(C3C(C#N)=C(N)Oc4cc5ccccc5cc43)cc(=O)oc2c1 (centres undefined) as the compound, how does the GI50 read?
Answer: 0.697 µM

Question: And the TGI?
Answer: 21.3 µM

Question: With COC(=O)c1cc2c(s1)-c1nccc3c1c(nc1ccccc13)C2=O as the compound, how does the GI50 read?
Answer: 97.7 µM

Question: And the TGI?
Answer: > 100 µM

Question: How did the GI50 turn out when Oc1ccc(Nc2c3ccccc3nc3occ(Cl)c23)cc1 was run?
Answer: 3.79 µM

Question: And the TGI?
Answer: 26.8 µM

Question: O=C(Nc1cc(C(F)(F)F)ccc1Cl)c1cccc(NC2=C(Cl)C(=O)N(Cc3ccccc3)C2=O)c1 was tested. Which GI50 did it give?
Answer: 82.6 µM

Question: And the TGI?
Answer: > 100 µM

Question: What does the source list for CC1(Br)Cc2ccccc2C1=O (centres undefined)?
Answer: GI50: 1.08 µM; TGI: 4.4 µM

Question: Which GI50 does the source give for CN(C)C(=S)Sc1ccc([N+](=O)[O-])cc1[N+](=O)[O-] here?
Answer: 2.5 µM

Question: What about the TGI of the same compound?
Answer: 9.46 µM

Question: How did the GI50 turn out when CCOC(=O)/C=C/c1ccc(C#Cc2ccccc2)cc1 was run?
Answer: > 100 µM

Question: What about the TGI of the same compound?
Answer: > 100 µM

Question: What does the source list for O=[P@@]1(c2ccccc2)O[C@H](COCc2ccccc2)[C@@H](OCc2ccccc2)[C@H](OCc2ccccc2)[C@H]1NCc1ccccc1?
Answer: GI50: 3.21 µM; TGI: > 100 µM

Question: How did the TGI turn out when C[C@H]1CN[C@@H]2[C@@H](C)[C@H]3[C@@H](C[C@H]4[C@@H]5CC[C@H]6C[C@@H](N)CC[C@]6(C)[C@H]5CC[C@]34C)O[C@@]2(O)C1 was run?
Answer: 4.73 µM

Question: What does the source list for COc1ccc(C(O)(CCC(C)C)C(CN2CCOCC2)c2ccc(Cl)cc2)cc1 (centres undefined)?
Answer: GI50: 13.9 µM; TGI: 33.2 µM

Question: Cn1c(=O)c(Oc2ccc(F)cc2)cc2cnc(NC3CCOCC3)nc21 was tested. Which GI50 did it give?
Answer: > 25 µM

Question: What about the TGI of the same compound?
Answer: > 25 µM

Question: What does the source list for CC1(C)N=C(N)N=C(N)N1c1ccc(CCCCc2ccc(Cl)c(S(=O)(=O)F)c2)c(Cl)c1?
Answer: GI50: 0.756 µM; TGI: > 41.2 µM

Question: How did the GI50 turn out when Clc1nc(Cl)nc(Nc2cccc3ccccc23)n1 was run?
Answer: > 100 µM

Question: And the TGI?
Answer: > 100 µM

Question: With Cc1cc2cc3c(=O)[nH]c(=O)[nH]c3nc2cc1C as the compound, how does the TGI read?
Answer: > 100 µM

Question: With CCc1c(Cl)c(C)cc(O)c1Cl as the compound, how does the TGI read?
Answer: 92.5 µM

Question: How did the GI50 turn out when CC(C)OC(=O)[C@H](C)NP(=O)(OC[C@H]1O[C@@H](n2ccc(=O)[nH]c2=O)[C@](C)(F)[C@@H]1O)Oc1ccccc1 (some centres undefined) was run?
Answer: > 100 µM

Question: And the TGI?
Answer: > 100 µM

Question: For C=COC(=O)N[C@H]1CCc2cc(OC)c(OC)c(OC)c2-c2ccc(SC)c(=O)cc21, which TGI is on record?
Answer: 14.7 µM
